Assay results as given in patent publication EP3363912B1, “SELF-CALIBRATED ASSAY FOR DETERMINING PROTEOLYTIC ENZYME GENERATION, DEDICATED MEANS AND USES THEREOF” (Synapse B.V., priority 2017, dated 2018).
Where a SMILES comes first, the peptide text is derived from it. The star is where a group is joined. AMC = Cc1cc(=O)oc2cc(N*)ccc12; Boc = CC(C)(C)OC(=O)*

Key:
Type in all cases: biochemical
[1] = target: T1, plasmin-α2-macroglobulin complex (Homo sapiens, UniProt P00747); assay: Plasmin generation experiment on paper, calibrator curve with plasmin-α2-macroglobulin complex; conditions: substrate 300 µM with 8 µM AMC added, constant E 100 nM
T1 construct: thrombin and plasmin can be reacted with the plasma-derived protein α2-macroglobulin; made in house
Procedure: Stock solutions: SC-FII, prepared in house 1µM; Plasmin-α2macroglobulin complex, prepared in house 1 µM; rec Human recombinant tissue factor (TF) (Innovin; Siemens) 6µM. Phospholipids (PS:PC:PE, 2:6:2) prepared in house 1 mM, Human recombinant tissue plasminogen activator (tPA), (Alteplase Boehringer Ingelheim) 36 klU, Final concentrations used: SC-FII, 100 nM, Plasmin-α2macroglobulin 100 nM: tPA 300 IU. Substrate 300 µM,
To 40 µL of plasma was added 20 µL of the substrate solution (1,35 mM in BSA 60 buffer) so as to obtain a concentration of 450 µM.
To 40 µL of this mixture were added 20 µL of the activation mixture containing the indicated concentration of Ca^++, TF, PI, tPA in BSA 5 buffer. 5 µL of this of this solution was transferred to three 6 mm diameter paper rounds at the (flat) bottom of a 96-well plate. […] The plate was read in a Fluoroscan Ascent fluorometer at 37°C. Samples were measured every 10s at 390-460 nm for 50 minutes.
A plasmin generation experiment was carried out as described in the methods section with Boc-Glu-Lys-Lys-AMC (300 µM) as a substrate to which 8 µM AMC was added. […] We simultaneously recorded a fluorescence curve from plasmin-α2-macroglobulin complex, equivalent to 100 nM plasmin. From this curve, run to completion we found Fmax to be 1778 AU, whereas F0 as measured during the lag-times, was 49,2 AUs.

[2] = target: T2, staphylocoagulase-thrombin (Homo sapiens, UniProt P00734); assay: Conversion of a substrate concentration series by staphylocoagulase-thrombin in 1:2 diluted normal plasma on filter paper
T2 construct: Antithrombin-resistant thrombin activity can also be obtained reacting prothrombin with the protein staphylocoagulase; made in house
Source text: Surface fluorescence in plasma and in whole blood has been essentially measured in the same way as published by Ninnivagi and Apitz for whole blood (Ninivaggi M, Apitz-Castro R, Dargaud Y, de Laat B, Hemker HC, Lindhout T. Whole blood thrombin generation monitored with a calibrated automated thrombogram-based assay. Clin.Chem. 2012,58:1252-1259) or in WO2006/117246. Paper discs of 5.5 mm diameter and 180 µm thickness (Whatman 589/1, Whatman GmbH, Dassel, Germany) were placed in flat bottom wells of a 96-wells polystyrene microplate (Thermo Electron Corporation, Milford, MA, USA).
• A. Preparation of paper matrices and placement into a flat-bottom 96 wells plate • B. Addition of the fluorogenic substrate solution to the plasma or to whole blood • C. Pre-heating of the reagents and whole blood for 2 min at 37°C • D. Mixing of the whole blood and the trigger mix or calibrator 1:1 • E. Pipetting 5 µL reaction mix onto the paper matrix • F. Pipetting 40 µL of mineral oil onto the paper matrix • G. Immediate measurement of fluorescence in time (exc 485 nm / em 538 nm)
In 1:2 diluted normal plasma adsorbed on filter paper a concentration series of mPEG-Gly-Pro-Arg-RhoAc (75, 150, 225, 300, 450 and 600 µM) was converted by 100 nM of staphylocoagulase-thrombin and the resulting fluorescence recorded as further described under materials and methods. […]

[3] = target: T3, thrombin (Homo sapiens, UniProt P00734); assay: Standard thrombin generation experiment in plasma, ratio method (kinetic constants of substrate conversion); conditions: substrate at 108 and 416 µM with 1 µM AMC added, 5 pM tissue factor, 37°C
T3 construct: from tissue; host or cells: plasma
Procedure: Plasma in solution: The TG experiments in the examples are variations on the standard experiment in which thrombin generation in plasma is measured in a 96-wells polystyrene microplate (Thermo Electron Corporation, Milford, MA, USA). All wells contained 80 µl plasma and 20 µl of a solution containing 0.5 - 5 pM tissue factor (TF) and 4 µM phospholipids (PL). To calibrator wells, 20 µl of calibrator was added instead so as to obtain the equivalent of 100 nM thrombin activity. Thrombin generation (TG) was initiated by the addition of 20 µl of substrate (standard: Z-Gly-Gly-Arg-AMC, 417 µM) and CaCl2 (16.6 mM).
• A. Addition of 80 µl plasma to each well • B. Addition of 20 µl TF/phospholipids mix or 20 µl calibrator to each well • C. Pre-heating of the plate for 10 min at 37°C • D. Addition of 20 µl FluCa kept at 37°C prior to the addition of the reaction mixture. • E. Immediate kinetic measurement of fluorescence in time (exc 390 nm / em 460 nm)
A standard thrombin generation experiment with 5 pM tissue factor was carried out, using Z-Gly-Gly-Arg-AMC as a substrate at the concentrations 108- and 416 bµM with 1µM of AMC added. Fom the fluorescence data the normalized ratio was calculated as Rt=(Fexp.t-F0)/(Fmax-F0) (dashed lines).

T1 sequence (P00747 581-810 limits assumed): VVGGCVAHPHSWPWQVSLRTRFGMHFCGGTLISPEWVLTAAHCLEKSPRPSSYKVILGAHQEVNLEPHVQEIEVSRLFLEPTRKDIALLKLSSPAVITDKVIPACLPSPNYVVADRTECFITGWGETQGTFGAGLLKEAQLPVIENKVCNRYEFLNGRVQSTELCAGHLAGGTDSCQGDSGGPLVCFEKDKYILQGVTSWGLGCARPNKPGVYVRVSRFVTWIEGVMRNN
T1 sequence (P00747 97-580 limits assumed): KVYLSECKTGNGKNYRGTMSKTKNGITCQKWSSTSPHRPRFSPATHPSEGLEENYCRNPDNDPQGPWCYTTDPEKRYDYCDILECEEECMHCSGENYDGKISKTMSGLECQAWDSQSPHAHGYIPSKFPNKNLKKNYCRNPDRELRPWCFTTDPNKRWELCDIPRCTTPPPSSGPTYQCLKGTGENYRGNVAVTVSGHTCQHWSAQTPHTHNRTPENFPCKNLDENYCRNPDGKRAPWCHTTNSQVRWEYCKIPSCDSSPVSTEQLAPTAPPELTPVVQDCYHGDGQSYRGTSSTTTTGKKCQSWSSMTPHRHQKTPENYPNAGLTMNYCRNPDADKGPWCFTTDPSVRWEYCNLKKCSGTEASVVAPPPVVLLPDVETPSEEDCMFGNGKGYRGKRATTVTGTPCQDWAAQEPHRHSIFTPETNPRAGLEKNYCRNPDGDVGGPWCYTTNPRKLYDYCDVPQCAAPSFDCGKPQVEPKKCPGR
T1 sequence (P01023 24-1474 partner): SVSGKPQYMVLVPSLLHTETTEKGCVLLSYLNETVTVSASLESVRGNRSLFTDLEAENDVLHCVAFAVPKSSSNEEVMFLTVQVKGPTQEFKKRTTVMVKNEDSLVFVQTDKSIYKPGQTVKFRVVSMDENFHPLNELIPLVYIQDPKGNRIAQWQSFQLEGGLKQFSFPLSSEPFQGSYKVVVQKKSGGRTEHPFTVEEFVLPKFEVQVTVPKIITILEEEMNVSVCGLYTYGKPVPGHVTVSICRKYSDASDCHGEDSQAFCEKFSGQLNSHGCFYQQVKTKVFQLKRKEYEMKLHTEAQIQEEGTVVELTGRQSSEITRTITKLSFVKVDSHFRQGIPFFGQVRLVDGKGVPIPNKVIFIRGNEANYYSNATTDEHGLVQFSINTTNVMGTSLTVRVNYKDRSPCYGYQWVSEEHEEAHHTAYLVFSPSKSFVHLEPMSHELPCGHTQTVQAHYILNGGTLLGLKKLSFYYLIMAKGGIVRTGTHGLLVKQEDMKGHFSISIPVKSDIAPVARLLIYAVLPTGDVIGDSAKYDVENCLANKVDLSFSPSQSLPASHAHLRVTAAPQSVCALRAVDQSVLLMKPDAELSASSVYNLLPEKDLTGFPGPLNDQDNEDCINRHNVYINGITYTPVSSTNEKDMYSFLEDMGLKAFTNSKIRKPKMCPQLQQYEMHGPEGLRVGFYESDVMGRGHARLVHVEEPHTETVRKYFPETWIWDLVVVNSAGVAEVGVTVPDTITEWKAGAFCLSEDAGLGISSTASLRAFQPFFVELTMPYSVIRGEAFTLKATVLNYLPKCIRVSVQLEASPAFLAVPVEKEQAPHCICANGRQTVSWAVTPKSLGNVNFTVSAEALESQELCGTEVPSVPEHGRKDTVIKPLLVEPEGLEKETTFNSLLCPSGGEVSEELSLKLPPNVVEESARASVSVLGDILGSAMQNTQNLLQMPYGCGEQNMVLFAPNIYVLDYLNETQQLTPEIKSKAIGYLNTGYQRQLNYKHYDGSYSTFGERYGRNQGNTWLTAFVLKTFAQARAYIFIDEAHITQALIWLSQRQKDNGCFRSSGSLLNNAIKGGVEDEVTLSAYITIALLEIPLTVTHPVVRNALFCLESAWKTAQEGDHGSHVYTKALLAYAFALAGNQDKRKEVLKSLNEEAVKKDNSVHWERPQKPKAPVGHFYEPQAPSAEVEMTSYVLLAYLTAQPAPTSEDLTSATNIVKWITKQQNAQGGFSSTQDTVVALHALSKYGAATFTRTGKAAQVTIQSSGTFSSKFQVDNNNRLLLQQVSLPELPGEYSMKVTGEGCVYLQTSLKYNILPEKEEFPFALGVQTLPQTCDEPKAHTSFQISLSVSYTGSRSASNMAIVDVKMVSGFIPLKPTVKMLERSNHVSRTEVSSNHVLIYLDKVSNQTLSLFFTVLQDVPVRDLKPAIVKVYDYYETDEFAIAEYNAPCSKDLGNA

Cc1cc(=O)oc2cc(NC(=O)[C@H](CCCCN)NC(=O)[C@H](CCCCN)NC(=O)[C@H](CCC(=O)O)NC(=O)OC(C)(C)C)ccc12 [Boc-Glu-Lys-Lys-AMC, ButylOxyCarbonyl-Glu-Lys-Lys-AMC] (Boc-Glu-Lys-Lys-{AMC})
Km/kcat [1]: 8660 nM·min

mPEG-Gly-Pro-Arg-RhoAc
Km/kcat ([2]; enzyme concentration 100 nM, any substrate concentration ≤ 600 µM): 11,36 µM.min | Km ([2]; substrate 75-600 µM, 100 nM staphylocoagulase-thrombin, inferred from reaction velocity proportional to substrate concentration): > 600 µM

Cc1cc(=O)oc2cc(NC(=O)C(CCCNC(=N)N)NC(=O)CNC(=O)CNC(=O)OCc3ccccc3)ccc12 (stereo not drawn) [Z-Gly-Gly-Arg-AMC]
Km [3]: 900 µM | kcat [3]: 1.9 s⁻¹
